The record followed here is the SangsterLogP compilation.

Broadly, the logD is the decadic logarithm of the distribution of all forms, ionised or not, between an organic phase and buffer at a given pH. Read a low logD as lower lipophilicity.

Molecules are shown by their SMILES.

This series can be described thus: method code SF-GLC, from DOI: 10.1002/qsar.19850040403. The following applies: pH 13.0.
`CCCCCN`: the logD worked out at 1.49.
`CCNC(C)C`: the logD turned out to be 0.93.
Then `CCCN(CC)CCC`, with 2.68; and `CCNC`, with 0.15; and `C=CCNCCC`, with 1.33.
`CC(C)N` yielded a pH-dependent lipophilicity (logD) of 0.26.
For `NCC(F)(F)F` the value was 0.24; for `CCCN(CC)CC(F)(F)F`, 2.38; for `CCCCC(CC)CN` (centres undefined), 2.82.
Then `CCCCNCCC`, with 2.12; and `C1CCNC1`, with 0.46.
For `CCN(CC)CC(F)(F)F`, the logD was determined as 1.88.
The molecule `CCCN(C)CC(F)(F)F` showed a logD of 2.18.
As for `CN(C)CC(F)(F)F`, the log distribution coefficient (logD) stood at 1.06.
For `CC(C)CN` the value was 0.73; for `CCCNC(C)CC` (centres undefined), 1.91.
For `CCN(C)C`, the logD worked out at 0.7.
Molecule `CNCC(F)(F)F` came in with a logD of 0.55.
For the molecule `CCCNCC(C)C`, the logD was found to be 2.07.
With `CCNCC(F)(F)F`, the logD is 0.74.
`C=CCNCC` came in with a logD of 0.81.
`CCCN(CCC)CCC` gave a log distribution coefficient (logD) of 2.79.
`C1CN2CCC1CC2` yielded a logD of 1.38.
For `CCCCCCCN` the value was 2.57.
